Reference: patent US20070043111A1, “Use of ifenprodril in the treatment of pain” (priority 2003, published 2007)

What was measured:
[1] = test system: alpha-1 adrenergic receptor; settings: Chenard et al., 1991; cited from earlier work
[2] = test system: intraplantar carrageenan-induced paw withdrawal latency; assay: intraplantar carrageenan-induced paw withdrawal latency in the rat; assay type: in vivo
Experimental: More particularly, FIG. 1 is a graph showing the effect of (−) threo-ifenprodil when given intranasally or intraperitoneally at 10 and 30 mg/kg on the % change of pressure-induced paw withdrawal latency on the intraplantar carrageenan administered paw in the rat (250 g).
FIG. 2 is a graph showing the effect of (−) threo-ifenprodil when given intravenously at 0.1 to 3 mg/kg on the % change of pressure-induced paw withdrawal latency on the intraplantar carrageenan administered paw in the rat.

SMILES: CC(C(O)c1ccc(O)cc1)N1CCC(Cc2ccccc2)CC1 (centres unmarked) [Ifenprodil, 2-(4-benzylpiperidino)-1-(4-hydroxyphenyl)-1-propanol]
- alpha-1 adrenergic receptor binding properties [1]: potent

SMILES: CC(C(O)c1ccc(O)cc1)N1CCC(Cc2ccccc2)CC1 (racemic) [erythro racemate of ifenprodil]
- intranasal route compared with intraperitoneal route ([2]; FIG. 1): at least equivalent if not superior to the intraperitoneal route
- analgesic effect on pressure-induced paw withdrawal latency ([2]; intranasal, 2.5 mg/rat and 7.5 mg/rat, FIG. 1): markedly analgesic
- analgesic effect on pressure-induced paw withdrawal latency ([2]; intraperitoneal, 10 mg/kg and 30 mg/kg, FIG. 1): markedly analgesic

SMILES: CC(C(O)c1ccc(O)cc1)N1CCC(Cc2ccccc2)CC1 (single isomer, unassigned; (-)) [(−) Threo-ifenprodil]
- efficacy on pressure-induced paw withdrawal latency ([2]; intravenous, 0.1, 0.3, 1 and 3 mg/kg, FIG. 2): excellent efficacy
